Laboratory results as given in patent US20240270699A1, “COMPOUNDS HAVING N-ARYLPYRIMIDIN-2-AMINE DERIVATIVES AS THERAPEUTIC AGENTS” (Lomond Therapeutics, Inc., priority 2021, published 2024).

What was measured:
Jurkat cells = assay: IL-2 release Jurkat assay (anti-CD3/anti-CD28 stimulation, IL-2 ELISA); assay type: cell-based, human; conditions: activation with 400 ng/mL aCD3 + 400 ng/mL aCD28, 24 hours
recombinant HPK1 protein = molecular target: T1, recombinant HPK1 protein (Homo sapiens, UniProt Q92918); assay: Primary assay of HPK1 enzymatic activity inhibition (ADP-Glo luminescence); assay type: biochemical; conditions: recombinant HPK1, MBP substrate, 1 hour at room temperature
T1 construct: purchased Promega V6398
T1 sequence (Q92918 1-346 limits assumed): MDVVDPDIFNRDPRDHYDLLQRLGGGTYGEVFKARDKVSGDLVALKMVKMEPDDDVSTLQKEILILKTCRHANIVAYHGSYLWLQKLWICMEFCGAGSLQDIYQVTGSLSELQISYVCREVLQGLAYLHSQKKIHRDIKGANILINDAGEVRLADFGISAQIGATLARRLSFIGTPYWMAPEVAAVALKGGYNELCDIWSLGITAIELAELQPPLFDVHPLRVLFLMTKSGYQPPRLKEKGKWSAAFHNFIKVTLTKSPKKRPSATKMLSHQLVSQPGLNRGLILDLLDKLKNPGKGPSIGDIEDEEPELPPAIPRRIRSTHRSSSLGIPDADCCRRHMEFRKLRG

[1] = Table B: Jurkat, 1.5 μM of tested compounds
[2] = Table C: Jurkat, 6 μM of tested compounds, stimulated vehicle = A
[3] = Table D: Jurkat, 6 μM of tested compounds, stimulated vehicle = B

SMILES | IL-2, pg/mL stimulated (Jurkat cells; [1]) | IC50 (recombinant HPK1 protein) [µM] | IL-2, pg/mL stimulated (Jurkat cells; [2]) | IL-2, pg/mL stimulated (Jurkat cells; [3])
CS(=O)(=O)c1ccc(Nc2ncc(C(N)=O)c(N[C@H](CO)c3ccccc3)n2)cc1F [Compound 31, 2-{[3-fluoro-4-(methylsulfonyl)phenyl]amino}-4-{[(1S)-2-hydroxy-1-phenylethyl]amino}pyrimidine-5-carboxamide] | C (25.0 pg/mL≤IL-2<35.0 pg/mL) | 0.05 to 0.2 | – | –
CNC(=O)c1cnc(Nc2ccc3c(c2)CCN(C)C3=O)nc1N[C@H](CO)c1ccccc1 [Compound 43, 4-{[(1S)-2-hydroxy-1-phenylethyl]amino}-N-methyl-2-[(2-methyl-1-oxo-1,2,3,4-tetrahydroisoquinolin-6-yl)amino]pyrimidine-5-carboxamide] | D (35.0 pg/mL≤IL-2) | 0.05 to 0.2 | – | –
CCOC(=O)c1cnc(Nc2ccc3c(c2)CCNC3=O)nc1N[C@H](CO)c1ccccc1 [Compound 45, Ethyl 4-{[(1S)-2-hydroxy-1-phenylethyl]amino}-2-[(1-oxo-1,2,3,4-tetrahydroisoquinolin-6-yl)amino]pyrimidine-5-carboxylate] | – | < 0.05 | B (50 pg/mL≤IL-2<100 pg/mL) | –
CCOC(=O)c1cnc(Nc2ccc3c(c2)CCC(=O)N3)nc1N[C@H](CO)c1ccccc1 [Compound 46, Ethyl 4-[[(1S)-2-hydroxy-1-phenyl-ethyl]amino]-2-[(2-oxo-3,4-dihydro-1H-quinolin-6-yl)amino]pyrimidine-5-carboxylate] | – | < 0.05 | – | D (150 pg/mL≤IL-2)
CCOC(=O)c1cnc(Nc2ccc(C(=O)N(C)C)cc2)nc1N[C@H](CO)c1ccccc1 [Compound 47, Ethyl 2-[4-(dimethylcarbamoyl)anilino]-4-[[(1S)-2-hydroxy-1-phenyl-ethyl]amino]pyrimidine-5-carboxylate] | – | 0.05 to 0.2 | B (50 pg/mL≤IL-2<100 pg/mL) | –
CNC(=O)c1cnc(Nc2ccc(S(C)(=O)=O)c(C)c2)nc1N[C@H](CO)c1ccccc1 [Compound 65, 4-{[(1S)-2-hydroxy-1-phenylethyl]amino}-N-methyl-2-{[3-methyl-4-(methylsulfonyl)phenyl]amino}pyrimidine-5-carboxamide] | D (35.0 pg/mL≤IL-2) | 0.05 to 0.2 | – | –
CCOC(=O)c1cnc(Nc2ccc(S(C)(=O)=O)cc2)nc1N[C@H](CO)c1ccccc1 [Compound 68, Ethyl 4-{[(1S)-2-hydroxy-1-phenylethyl]amino}-2-{[4-(methylsulfonyl)-phenyl]amino}pyrimidine-5-carboxylate] | D (35.0 pg/mL≤IL-2) | < 0.05 | – | –
CCOC(=O)c1cnc(Nc2cccc(S(C)(=O)=O)c2)nc1N[C@H](CO)c1ccccc1 [Compound 69] | – | 0.2 to 0.5 | B (50 pg/mL≤IL-2<100 pg/mL) | –
CNC(=O)c1cnc(Nc2ccc(F)c(-c3ccccc3)c2)nc1N[C@H](CO)c1ccccc1 [Compound 82, 2-[(6-fluorobiphenyl-3-yl)amino]-4-{[(1S)-2-hydroxy-1-phenylethyl]amino}-N-methylpyrimidine-5-carboxamide] | C (25.0 pg/mL≤IL-2<35.0 pg/mL) | 0.05 to 0.2 | – | –
CNC(=O)c1cnc(Nc2ccc(S(C)(=O)=O)c(F)c2)nc1N[C@H](CO)c1ccccc1 [Compound 105, 2-{[3-fluoro-4-(methylsulfonyl)phenyl]amino}-4-{[(1S)-2-hydroxy-1-phenylethyl]amino}-N-methylpyrimidine-5-carboxamide] | C (25.0 pg/mL≤IL-2<35.0 pg/mL) | 0.05 to 0.2 | – | –
CCNC(=O)c1cnc(Nc2ccc3c(c2)CCN(C)C3=O)nc1N[C@H](CO)c1ccccc1 [Compound 119, N-ethyl-4-{[(1S)-2-hydroxy-1-phenylethyl]amino}-2-[(2-methyl-1-oxo-1,2,3,4-tetrahydroisoquinolin-6-yl)amino]pyrimidine-5-carboxamide] | D (35.0 pg/mL≤IL-2) | < 0.05 | – | –
CCOC(=O)c1cnc(Nc2ccc3c(c2)CCN(C)C3=O)nc1N[C@H](CO)c1ccccc1 [Compound 122, Ethyl 4-{[(1S)-2-hydroxy-1-phenylethyl]amino}-2-[(2-methyl-1-oxo-1,2,3,4-tetrahydroisoquinolin-6-yl)amino]pyrimidine-5-carboxylate] | C (25.0 pg/mL≤IL-2<35.0 pg/mL) | < 0.05 | – | –
CCOC(=O)c1cnc(Nc2ccc(C(=O)N(C)C)c(C)c2)nc1N[C@H](CO)c1ccccc1 [Compound 125, Ethyl 2-[4-(dimethylcarbamoyl)-3-methyl-anilino]-4-[[(1S)-2-hydroxy-1-phenyl-ethyl]amino]pyrimidine-5-carboxylate] | – | 0.2 to 0.5 | – | D (150 pg/mL≤IL-2)
CCNC(=O)c1cnc(Nc2ccc(S(C)(=O)=O)c(C)c2)nc1N[C@H](CO)c1ccccc1 [Compound 156, N-ethyl-4-{[(1S)-2-hydroxy-1-phenylethyl]amino}-2-{[3-methyl-4-(methylsulfonyl)phenyl]amino}pyrimidine-5-carboxamide] | C (25.0 pg/mL≤IL-2<35.0 pg/mL) | 0.05 to 0.2 | – | –
Cc1cc(Nc2ncc(C(=O)N(C)C)c(N[C@H](CO)c3ccccc3)n2)ccc1S(C)(=O)=O [Compound 157, 4-[[(1S)-2-hydroxy-1-phenyl-ethyl]amino]-N,N-dimethyl-2-(3-methyl-4-methylsulfonyl-anilino)pyrimidine-5-carboxamide] | – | 0.2 to 0.5 | C (100 pg/mL≤IL-2<150 pg/mL) | –
CCOC(=O)c1cnc(Nc2ccc(S(C)(=O)=O)c(C)c2)nc1N[C@H](CO)c1ccccc1 [Compound 166, Ethyl 4-{[(1S)-2-hydroxy-1-phenylethyl]amino}-2-{[3-methyl-4-(methylsulfonyl)phenyl]amino}pyrimidine-5-carboxylate] | C (25.0 pg/mL≤IL-2<35.0 pg/mL) | < 0.05 | – | –
CCOC(=O)c1cnc(Nc2ccc(S(C)(=O)=O)cc2C)nc1N[C@H](CO)c1ccccc1 [Compound 167, Ethyl 4-{[(1S)-2-hydroxy-1-phenylethyl]amino}-2-{[2-methyl-4-(methylsulfonyl)phenyl]amino}pyrimidine-5-carboxylate] | – | 0.2 to 0.5 | B (50 pg/mL≤IL-2<100 pg/mL) | –
CCOC(=O)c1cnc(Nc2ccc(S(=O)(=O)CC)cc2)nc1N[C@H](CO)c1ccccc1 [Compound 168, Ethyl 2-{[4-(ethylsulfonyl)phenyl]amino}-4-{[(1S)-2-hydroxy-1-phenylethyl]amino}pyrimidine-5-carboxylate] | – | 0.05 to 0.2 | A (IL-2<50 pg/mL) | –
CCNC(=O)c1cnc(Nc2ccc(F)c(-c3ccccc3)c2)nc1N[C@H](CO)c1ccccc1 [Compound 189, N-ethyl-2-[(6-fluorobiphenyl-3-yl)amino]-4-{[(1S)-2-hydroxy-1-phenylethyl]amino}pyrimidine-5-carboxamide] | C (25.0 pg/mL≤IL-2<35.0 pg/mL) | 0.2 to 0.5 | – | –
CCOC(=O)c1cnc(Nc2ccc(F)c(-c3ccccc3)c2)nc1N[C@H](CO)c1ccccc1 [Compound 195, Ethyl 2-[(6-fluorobiphenyl-3-yl)amino]-4-{[(1S)-2-hydroxy-1-phenylethyl]amino}pyrimidine-5-carboxylate] | C (25.0 pg/mL≤IL-2<35.0 pg/mL) | 0.2 to 0.5 | – | –
CCOC(=O)c1cnc(Nc2ccc(S(C)(=O)=O)c(F)c2)nc1N[C@H](CO)c1ccccc1 [Compound 210, Ethyl 2-{[3-fluoro-4-(methylsulfonyl)phenyl]amino}-4-{[(1S)-2-hydroxy-1-phenylethyl]amino}pyrimidine-5-carboxylate] | D (35.0 pg/mL≤IL-2) | 0.2 to 0.5 | – | –
CCOC(=O)c1cnc(Nc2ccc(S(C)(=O)=O)cc2F)nc1N[C@H](CO)c1ccccc1 [Compound 211, Ethyl 2-{[2-fluoro-4-(methylsulfonyl)phenyl]amino}-4-{[(1S)-2-hydroxy-1-phenylethyl]amino}pyrimidine-5-carboxylate] | – | 0.05 to 0.2 | B (50 pg/mL≤IL-2<100 pg/mL) | –
CC(C)NC(=O)c1cnc(Nc2ccc3c(c2)CCN(C)C3=O)nc1N[C@H](CO)c1ccccc1 [Compound 212, 4-{[(1S)-2-hydroxy-1-phenylethyl]amino}-2-[(2-methyl-1-oxo-1,2,3,4-tetrahydroisoquinolin-6-yl)amino]-N-(propan-2-yl)pyrimidine-5-carboxamide] | C (25.0 pg/mL≤IL-2<35.0 pg/mL) | 0.05 to 0.2 | – | –
CCOC(=O)c1cnc(Nc2ccc3c(c2)CCN(CC)C3=O)nc1N[C@H](CO)c1ccccc1 [Compound 218, Ethyl 2-[(2-ethyl-1-oxo-3,4-dihydroisoquinolin-6-yl)amino]-4-[[(1S)-2-hydroxy-1-phenyl-ethyl]amino]pyrimidine-5-carboxylate] | – | 0.05 to 0.2 | D (150 pg/mL≤IL-2) | –
CCOC(=O)c1cnc(Nc2ccc(C(=O)N(C)C)c(Cl)c2)nc1N[C@H](CO)c1ccccc1 [Compound 266, Ethyl 2-[3-chloro-4-(dimethylcarbamoyl)anilino]-4-[[(1S)-2-hydroxy-1-phenyl-ethyl]amino]pyrimidine-5-carboxylate] | – | 0.2 to 0.5 | C (100 pg/mL≤IL-2<150 pg/mL) | –
Cc1cc(Nc2ncc(C(=O)NC(C)C)c(N[C@H](CO)c3ccccc3)n2)ccc1S(C)(=O)=O [Compound 267, 4-{[(1S)-2-hydroxy-1-phenylethyl]amino}-2-{[3-methyl-4-(methylsulfonyl)phenyl]amino}-N-(propan-2-yl)pyrimidine-5-carboxamide] | D (35.0 pg/mL≤IL-2) | 0.05 to 0.2 | – | –
